Data as given in patent publication US20070128217A1 (priority 2003, published 2007).

Experiments:
[1] = tested on: antibodies in sera from SARS patients (sera 1a, 1b, 2, 6, 37, 62, London, SARS-yellow, SARS-green); type: binding, human; parameters: Binding of serum 6 to linear peptides of protein X1 of SARS-CoV Urbani / Binding of serum 37 to linear peptides of protein X1 of SARS-CoV Urbani / Binding of serum 6 to looped/cyclic peptide (PEPSCAN-ELISA) / Binding of serum 37 to looped/cyclic peptide (PEPSCAN-ELISA) / Binding of serum 37 to looped/cyclic peptides of protein X1 of SARS-CoV Urbani / Binding of serum 6 to linear peptides of protein X2 / Binding of serum 37 to linear peptides of protein X2 / Binding of serum 37 to looped/cyclic peptides of protein X2 of SARS-CoV Urbani / Binding of serum 6 to linear peptides of protein M of SARS-CoV Urbani / Binding of serum 37 to linear peptides of protein M of SARS-CoV Urbani / Binding of serum 6 to looped/cyclic peptides of protein M of SARS-CoV Urbani / Binding of serum 37 to looped/cyclic peptides of protein M of SARS-CoV Urbani / Binding of serum 6 to linear peptides of protein X3 of SARS-CoV Urbani / Binding of serum 37 to linear peptides of protein X3 of SARS-CoV Urbani / Binding of serum 37 to looped/cyclic peptides of protein X3 of SARS-CoV Urbani / Binding of serum 6 to linear peptides of protein X4 of SARS-CoV Urbani / Binding of serum 37 to linear peptides of protein X4 of SARS-CoV Urbani / Binding of serum 37 to looped/cyclic peptides of protein X4 of SARS-CoV Urbani / Binding of serum 6 to linear peptides of protein X5 of SARS-CoV Urbani / Binding of serum 37 to linear peptides of protein X5 of SARS-CoV Urbani / Binding of serum 37 to looped/cyclic peptides of protein X5 of SARS-CoV Urbani / Binding of serum 6 to linear peptides of protein N of SARS-CoV Urbani / Binding of serum 37 to linear peptides of protein N of SARS-CoV Urbani / Binding of serum 6 to linear peptide (PEPSCAN-ELISA) / Binding of serum 1a to looped/cyclic peptides of protein N of SARS-CoV Urbani / Binding of serum 1b to looped/cyclic peptides of protein N of SARS-CoV Urbani / Binding of serum 2 to looped/cyclic peptides of protein N of SARS-CoV Urbani / Binding of serum 6 to looped/cyclic peptides of protein N of SARS-CoV Urbani / Binding of serum 37 to looped/cyclic peptides of protein N of SARS-CoV Urbani / Binding of serum 62 to looped/cyclic peptides of protein N of SARS-CoV Urbani / Binding of serum London to looped/cyclic peptides of protein N of SARS-CoV Urbani / Binding of serum SARS-green to looped/cyclic peptides of protein N of SARS-CoV Urbani: unit not given here
[2] = tested on: control sera (pooled serum of ten healthy LUMC hospital workers; commercial negative donor pooled serum from the Dutch bloodbank); type: binding, human; parameters: Binding of Control serum LUMC to linear peptides / Binding of Control serum Blood-bank to linear peptides / Binding of Control serum LUMC to looped peptides / Binding of Control Serum Blood-Bank to Looped peptides / Binding of Control serum LUMC to linear peptides of the protein M of SARS-CoV Urbani / Binding of Control serum Blood-bank to linear peptides of the protein M of SARS-CoV Urbani / Binding of Control serum LUMC to looped peptides of the protein M of SARS-CoV Urbani / Binding of Control Serum Blood-Bank to Looped peptides of the protein M of SARS-CoV Urbani: unit not given here
[3] = tested on: rabbit serum obtained by immunizing a rabbit with the SARS-CoV strain Frankfurt 1; type: binding; parameters: Binding of a rabbit serum to linear peptides / Binding of a rabbit serum to looped peptides / Rabbit serum linear peptides / Rabbit serum looped peptides / Binding of a rabbit serum to linear peptides of protein N of SARS-CoV Urbani (Rabbit serum linear peptides) / Binding of a rabbit serum to looped/cyclic peptides of protein N of SARS-CoV Urbani (Rabbit serum looped peptides): unit not given here

## YALIYFLQCINACRI
[1]
  Binding of serum 1a to linear peptides of protein X1 of SARS-CoV Urbani: 0.7
  Binding of serum 1a to looped/cyclic peptide (PEPSCAN-ELISA): 0.2
  Binding of serum 1b to linear peptides of protein X1 of SARS-CoV Urbani: 0.5
  Binding of serum 1b to looped/cyclic peptide (PEPSCAN-ELISA): 0.1
  Binding of serum 2 to linear peptides of protein X1 of SARS-CoV Urbani: 0.5
  Binding of serum 2 to looped/cyclic peptide (PEPSCAN-ELISA): 0.1
  Binding of serum 6 to linear peptides of protein X1 of SARS-CoV Urbani: 0.4
  Binding of serum 6 to looped/cyclic peptide (PEPSCAN-ELISA): 0.0
  Binding of serum 37 to linear peptides of protein X1 of SARS-CoV Urbani: 0.6
  Binding of serum 37 to looped/cyclic peptide (PEPSCAN-ELISA): 0.1
  Binding of serum 62 to linear peptides of protein X1 of SARS-CoV Urbani: 0.6
  Binding of serum 62 to looped/cyclic peptide (PEPSCAN-ELISA): 0.2
  Binding of serum London to linear peptides of protein X1 of SARS-CoV Urbani: 0.3
  Binding of serum London to looped/cyclic peptide (PEPSCAN-ELISA): 0.1
  Binding of serum SARS-green to linear peptides of protein X1 of SARS-CoV Urbani: 0.2
  Binding of serum SARS-green to looped/cyclic peptide (PEPSCAN-ELISA): 0.2
  Binding of serum SARS-yellow to linear peptides of protein X1 of SARS-CoV Urbani: 0.4
  Binding of serum SARS-yellow to looped/cyclic peptide (PEPSCAN-ELISA): 0.0
[2]
  Binding of Control Serum Blood-Bank to Looped peptides: 0.3
  Binding of Control serum Blood-bank to linear peptides: 0.6
  Binding of Control serum LUMC to linear peptides: 0.6
  Binding of Control serum LUMC to looped peptides: 0.2
[3]
  Binding of a rabbit serum to linear peptides: 0.1
  Binding of a rabbit serum to looped peptides: 0.0

## IGFLFLAWIMLLQFA
[1]
  Binding of serum 1a to linear peptides of protein M of SARS-CoV Urbani: 0.7
  Binding of serum 1a to looped/cyclic peptides of protein M of SARS-CoV Urbani: 0.8
  Binding of serum 1b to linear peptides of protein M of SARS-CoV Urbani: 0.6
  Binding of serum 1b to looped/cyclic peptides of protein M of SARS-CoV Urbani: 0.7
  Binding of serum 2 to linear peptides of protein M of SARS-CoV Urbani: 0.5
  Binding of serum 2 to looped/cyclic peptides of protein M of SARS-CoV Urbani: 0.6
  Binding of serum 6 to linear peptides of protein M of SARS-CoV Urbani: 0.9
  Binding of serum 6 to looped/cyclic peptides of protein M of SARS-CoV Urbani: 0.9
  Binding of serum 37 to linear peptides of protein M of SARS-CoV Urbani: 0.4
  Binding of serum 37 to looped/cyclic peptides of protein M of SARS-CoV Urbani: 0.7
  Binding of serum 62 to linear peptides of protein M of SARS-CoV Urbani: 0.5
  Binding of serum 62 to looped/cyclic peptides of protein M of SARS-CoV Urbani: 0.8
  Binding of serum London to linear peptides of protein M of SARS-CoV Urbani: 0.6
  Binding of serum London to looped/cyclic peptides of protein M of SARS-CoV Urbani: 0.3
  Binding of serum SARS-green to linear peptides of protein M of SARS-CoV Urbani: 0.5
  Binding of serum SARS-green to looped/cyclic peptides of protein M of SARS-CoV Urbani: 0.3
  Binding of serum SARS-yellow to linear peptides of protein M of SARS-CoV Urbani: 0.2
  Binding of serum SARS-yellow to looped/cyclic peptides of protein M of SARS-CoV Urbani: 0.5
[2]
  Binding of Control Serum Blood-Bank to Looped peptides of the protein M of SARS-CoV Urbani: 0.7
  Binding of Control serum Blood-bank to linear peptides of the protein M of SARS-CoV Urbani: 0.7
  Binding of Control serum LUMC to linear peptides of the protein M of SARS-CoV Urbani: 0.7
  Binding of Control serum LUMC to looped peptides of the protein M of SARS-CoV Urbani: 0.8
[3]
  Rabbit serum linear peptides: 0.2
  Rabbit serum looped peptides: 0.3

## ALNKRWQLALYKGFQ
[1]
  Binding of serum 1a to linear peptides of protein X1 of SARS-CoV Urbani: 0.7
  Binding of serum 1a to looped/cyclic peptide (PEPSCAN-ELISA): 0.8
  Binding of serum 1b to linear peptides of protein X1 of SARS-CoV Urbani: 0.6
  Binding of serum 1b to looped/cyclic peptide (PEPSCAN-ELISA): 0.6
  Binding of serum 2 to linear peptides of protein X1 of SARS-CoV Urbani: 0.5
  Binding of serum 2 to looped/cyclic peptide (PEPSCAN-ELISA): 0.7
  Binding of serum 6 to linear peptides of protein X1 of SARS-CoV Urbani: 0.5
  Binding of serum 6 to looped/cyclic peptide (PEPSCAN-ELISA): 0.6
  Binding of serum 37 to linear peptides of protein X1 of SARS-CoV Urbani: 0.6
  Binding of serum 37 to looped/cyclic peptide (PEPSCAN-ELISA): 0.6
  Binding of serum 62 to linear peptides of protein X1 of SARS-CoV Urbani: 0.5
  Binding of serum 62 to looped/cyclic peptide (PEPSCAN-ELISA): 0.7
  Binding of serum London to linear peptides of protein X1 of SARS-CoV Urbani: 0.2
  Binding of serum London to looped/cyclic peptide (PEPSCAN-ELISA): 0.3
  Binding of serum SARS-green to linear peptides of protein X1 of SARS-CoV Urbani: 0.2
  Binding of serum SARS-green to looped/cyclic peptide (PEPSCAN-ELISA): 0.4
  Binding of serum SARS-yellow to linear peptides of protein X1 of SARS-CoV Urbani: 0.4
  Binding of serum SARS-yellow to looped/cyclic peptide (PEPSCAN-ELISA): 0.6
[2]
  Binding of Control Serum Blood-Bank to Looped peptides: 0.9
  Binding of Control serum Blood-bank to linear peptides: 0.6
  Binding of Control serum LUMC to linear peptides: 0.6
  Binding of Control serum LUMC to looped peptides: 0.8
[3]
  Recognition of the peptide by the rabbit serum: recognized
